The source of these data is publication PMC10142505, “Synthesis, Evaluation of Enzyme Inhibition and Redox Properties of Potential Dual COX-2 and 5-LOX Inhibitors” (Pharmaceuticals, 2023).

The experiment deals with human serum pool. The experiment in a line: Redox activity (oxy score from TOS, PAB, TAS, SHG) in vitro in human serum pool. The following applies: 37 °C, median (interquartile range); for Oxy score (OS), 2 h incubation, TBH added / Oxy score (OS), 24 h incubation, TBH added: with TBH added; for Oxy score (OS), 2 h incubation / Oxy score (OS), 24 h incubation: without TBH; for Oxy score (OS), 2 h incubation: average of five concentrations. As to the method: The remains of the serum samples were taken from healthy subjects after biochemical analysis; these subjects participated in regular medical examinations at the Military Medical Academy in Belgrade and consented to the formation of a serum pool. Neither the patients’ data nor their identities were used. Serum pool samples were prepared and aliquoted (450 µL portions) according to the routine procedure for in-house controle samples and preserved at the -80 °C until analysis. Five serial dilutions of the tested compounds (concentrations: 1000 µM, 500 µM, 250 µM, 125 µM and 62.5 µM) were added alone (50 µL) or in combination (25 µL) with oxidant TBH (25 µM) into 450 µL of serum. The compounds were dissolved in dimethyl sulfoxide (DMSO) for stock solution (1000 µM), while a PBS buffer (phosphate buffered saline) pH = 7.4 was used for serial dilutions (500 µM, 250 µM, 125 µM and 62.5 µM). Deionized water was used as a blank. DMSO and buffer pH = 7.4 were used as a control, while trolox solution (2 mmol/L) was used as a standard. All samples were incubated in duplicate for 2 h and 24 h at 37 °C.
Oxidative stress parameters (total antioxidative status (TAS), total oxidative status (TOS), total concentration of sulfhydryl group (SHG) and prooxidative–antioxidative balance (PAB)) were determined in order to calculate prooxidative score, antioxidative score and oxy score (OS). These parameters were determined in serum.
Total antioxidative status (TAS) was measured using Erel’s method, which was further optimized by Kotur-Stevuljevic et al. in 2015 [34]. ABTS (2,2-azino-bis(3-ethyl-benzthiazoline-6-sulfonic acid) is oxidized to a green-colored ABTS^+ cation by hydrogen peroxide in the acetate buffer (pH = 3.6). This stable cation is chromogen, and the presence of antioxidants in the samples causes its discoloration proportional to their concentrations. The absorbance was measured using a SPECTROstar Nano Microplate Reader (BMG Labtech, Ortenberg, Germany). The reaction was calibrated with Trolox and the TAS values are expressed as mmol trolox equivalent/L.
Total oxidative status (TOS) was measured using Erel’s method. Here, a ferrous ion-o-dianisidine complex is oxidized to ferric ion by the oxidants present in the sample. The ferric ion forms a colored complex with xylenol orange in an acidic environment and in the presence of glycerol. The intensity of the color of the formed complex is proportional to the total contents of oxidants in the sample. The absorbance was measured at 560 nm using a SPECTROstar Nano Microplate Reader (BMG Labtech, Ortenberg, Germany). The reaction was calibrated with hydrogen peroxide and the TOS values are expressed as µmol H2O2 equivalent/L.
Prooxidant–antioxidant balance (PAB) was measured according to procedures in the literature. Here, hydrogen peroxide is determined in the presence of antioxidants in the sample. Both of them (hydrogen peroxide and antioxidants (including uric acid)) react with chromogen TMB (3,3′,5,5′-tetramethylbenzidine) simultaneously. The hydrogen peroxide and chromogen reaction is enzymatically catalyzed with peroxidase, while the antioxidants–chromogen reaction is non-enzymatic. The intense blue color, produced as a result of the reaction between hydrogen peroxide and TMB, is decolorized by the reaction of the antioxidant with the TMB. The resulting color (result of two competitive reactions) is proportional to the ratio of antioxidants to prooxidants. The absorbance was measured at 450 nm. Different ratios of hydrogen peroxide and uric acid solutions were used to make a standard curve. The PAB results are expressed in hydrogen peroxide concentrations.
Total Sulfydryl Groups Content (SHG) was measured using a modified version of Ellman’s method. This method is based on the reaction between DTNB ([…]) and aliphatic thiol compounds in an alkaline environment (pH = 9.0). […]

Marks after values point to notes of the source that are not given here.

As to `COC(=O)C(Cc1c[nH]cn1)NC(=O)c1cc(C(C)(C)C)c(O)c(C(C)(C)C)c1` (centres unmarked) [Compound 4, 2-(3,5-di-tert-butyl-4-hydroxy-benzoylamino)-3-(1H-imidazol-4-yl)-propionic acid methyl ester], the “Oxy score (OS), 2 h incubation, TBH added” value is 3.68 (3.36–8.40); the “Oxy score (OS), 2 h incubation” value was 0.24 (−0.24–0.89); the “Oxy score (OS), 24 h incubation, TBH added” value was 7.86 (7.20–10.68); the “Oxy score (OS), 24 h incubation” value is given as 3.00 (1.99–3.93) **.

Consider `CN(C)C(=O)Nc1ccccc1C(=O)O` [Compound 9, 2-(3,3-dimethyl-ureido)-benzoic acid], for which the “Oxy score (OS), 2 h incubation, TBH added” value is reported as 5.97 (4.06–8.25); the “Oxy score (OS), 2 h incubation” value is listed as 0.09 (−0.79–1.80); the “Oxy score (OS), 24 h incubation, TBH added” value was −0.19 (−0.68–1.56); the “Oxy score (OS), 24 h incubation” value is −0.18 (−1.55–2.91).

Turning to `C=CCNC(=O)c1cc(C(C)(C)C)c(O)c(C(C)(C)C)c1` [Compound 6, N-allyl-3,5-di-tert-butyl-4-hydroxy-benzamide], the “Oxy score (OS), 2 h incubation, TBH added” value is 3.77 (3.37–4.20); the “Oxy score (OS), 2 h incubation” value is reported as 0.52 (0.08–1.52); the “Oxy score (OS), 24 h incubation, TBH added” value was 6.07 (4.34–7.02); the “Oxy score (OS), 24 h incubation” value was 3.09 (2.50–3.67).

On to `COc1ccc2cc(C(C)N(O)C(C)=O)ccc2c1` (centres unmarked) [Compound 12, N-hydroxy-N-[1-(6-methoxy-naphthalen-2-yl)-ethyl]-acetamide], for which the “Oxy score (OS), 2 h incubation, TBH added” value is recorded as 4.79 (4.25–5.43); the “Oxy score (OS), 2 h incubation” value is on record as 0.24 (−0.06–0.58); the “Oxy score (OS), 24 h incubation, TBH added” value was 3.97 (3.44–6.33); the “Oxy score (OS), 24 h incubation” value is 2.49 (2.03–2.66) **.

For `CC(C)(C)c1cc(C=C2SC(=S)N(N)C2=O)cc(C(C)(C)C)c1O` [Compound 13, 3-amino-5-(3,5-di-tert-butyl-4-hydroxy-benzylidene)-2-thioxo-thiazolidin-4-one], the “Oxy score (OS), 2 h incubation, TBH added” value was 5.89 (5.63–6.14); the “Oxy score (OS), 2 h incubation” value is recorded as 0.75 (0.56–0.94); the “Oxy score (OS), 24 h incubation” value is listed as 0.64 (0.19–1.01).

With `COC(=O)CNC(=O)c1cc(C(C)(C)C)c(O)c(C(C)(C)C)c1` [Compound 5, (3,5-di-tert-butyl-4-hydroxy-benzoylamino)-acetic acid methyl ester], the “Oxy score (OS), 2 h incubation, TBH added” value was 2.83 (2.55–3.39); the “Oxy score (OS), 2 h incubation” value is 0.29 (−0.30–1.23); the “Oxy score (OS), 24 h incubation, TBH added” value is on record as 5.64 (5.07–6.47); the “Oxy score (OS), 24 h incubation” value is 2.14 (1.37–2.62) **.

Consider `COc1ccc2c(c1)c(CNC(=O)NO)c(C)n2C(=O)c1ccc(Cl)cc1` [Compound 1, N’-hydroxy-N-[(1-(4-chlorobenzoyl)-5-methoxy-2-methyl-3-indolyl)methyl]urea], for which the “Oxy score (OS), 2 h incubation, TBH added” value is given as 6.44 (5.51–7.02); the “Oxy score (OS), 2 h incubation” value is given as −0.43 (−1.27–3.13); the “Oxy score (OS), 24 h incubation, TBH added” value is recorded as 5.46 (4.96–6.20); the “Oxy score (OS), 24 h incubation” value is recorded as 0.71 (0.51–0.80).

`CC(=O)N(O)C(C)c1ccc(CC(C)C)cc1` (centres unmarked) [Compound 11]: the “Oxy score (OS), 2 h incubation, TBH added” value is 5.15 (4.76–6.74); the “Oxy score (OS), 2 h incubation” value is −0.22 (−0.65–0.82); the “Oxy score (OS), 24 h incubation, TBH added” value is listed as 3.18 (2.92–3.60) ^##; the “Oxy score (OS), 24 h incubation” value was 1.83 (1.49–2.18) *.

Regarding `CCOc1ccccc1NC(=O)Nc1ccc([N+](=O)[O-])cc1` [Compound 10, 1-(2-ethoxy-phenyl)-3-(4-nitro-phenyl)-urea], the “Oxy score (OS), 2 h incubation, TBH added” value was 6.34 (5.07–22.02); the “Oxy score (OS), 24 h incubation, TBH added” value was 0.97 (−0.04–4.08); the “Oxy score (OS), 24 h incubation” value is reported as −0.97 (−1.53–3.85).

With `O=C(NO)NCc1ccccc1Nc1c(Cl)cccc1Cl` [Compound 3, N’-hydroxy-N-[(2-(2,6-dichloroanilino)phenyl)methyl]urea], the “Oxy score (OS), 2 h incubation, TBH added” value is listed as 5.81 (4.64–7.25); the “Oxy score (OS), 2 h incubation” value is listed as 1.58 (−0.38–3.45); the “Oxy score (OS), 24 h incubation, TBH added” value was 1.93 (0.65–5.02) ^#; the “Oxy score (OS), 24 h incubation” value is reported as 1.31 (−0.31–1.75).

`CC(NC(=O)NO)c1ccc(-c2ccccc2)c(F)c1` (centres unmarked) [Compound 2]: the “Oxy score (OS), 2 h incubation, TBH added” value is given as 5.20 (3.70–5.42); the “Oxy score (OS), 2 h incubation” value was 3.28 (−0.68–16.66); the “Oxy score (OS), 24 h incubation, TBH added” value is reported as 6.79 (4.37–7.90); the “Oxy score (OS), 24 h incubation” value was 0.33 (−0.07–0.85).

For `CCOc1ccccc1NC(=O)N(C)C` [Compound 8, 3-(2-ethoxy-phenyl)-1,1-dimethyl-urea], the “Oxy score (OS), 2 h incubation, TBH added” value is 8.43 (5.76–13.81); the “Oxy score (OS), 2 h incubation” value was 0.03 (−0.96–1.46); the “Oxy score (OS), 24 h incubation, TBH added” value is recorded as −0.55 (−0.67–1.48) ^##; the “Oxy score (OS), 24 h incubation” value is reported as −0.52 (−1.24–3.03).

For the compound `C#CCNC(=O)c1cc(C(C)(C)C)c(O)c(C(C)(C)C)c1` [Compound 7, 3,5-di-tert-butyl-4-hydroxy-N-prop-2-ynyl-benzamide], the “Oxy score (OS), 2 h incubation, TBH added” value is given as 6.62 (6.42–6.98); the “Oxy score (OS), 2 h incubation” value is recorded as 3.12 (2.21–3.47); the “Oxy score (OS), 24 h incubation, TBH added” value was 10.54 (4.45–27.42); the “Oxy score (OS), 24 h incubation” value is 2.55 (2.18–2.92).
